Reference: PubChem BioAssay AID1259407 (Chemical Carcinogenesis Research Information System (CCRIS), 2018)
The source made the active and inactive calls. How the calls were made is not given here.

System: CCRIS mutagenicity, Ames/micronucleus/aberration tests
Assay: CCRIS mutagenicity studies
[1] = Test System: AMES SALMONELLA TYPHIMURIUM, Strain/Indicator: TA98, Metabolic Activation: NONE, Method: PREINCUBATION
[2] = Test System: AMES SALMONELLA TYPHIMURIUM, Strain/Indicator: TA98, Metabolic Activation: NONE, Method: STANDARD PLATE
[3] = Test System: AMES SALMONELLA TYPHIMURIUM, Strain/Indicator: TA100, Metabolic Activation: NONE, Method: STANDARD PLATE

## C[n+]1ccc(-c2ccccn2)cc1
Test System: AMES SALMONELLA TYPHIMURIUM, Strain/Indicator: TA97, Metabolic Activation: RAT, LIVER, S-9, PHENOBARBITAL, Method: STANDARD PLATE
  mutagenic call: inactive; negative
Test System: AMES SALMONELLA TYPHIMURIUM, Strain/Indicator: TA98, Metabolic Activation: RAT, LIVER, S-9, PHENOBARBITAL, Method: STANDARD PLATE
  mutagenic call: active; positive
Test System: AMES SALMONELLA TYPHIMURIUM, Strain/Indicator: TA100, Metabolic Activation: RAT, LIVER, S-9, PHENOBARBITAL, Method: STANDARD PLATE
  mutagenic call: inactive; negative
Test System: AMES SALMONELLA TYPHIMURIUM, Strain/Indicator: TA1535, Metabolic Activation: RAT, LIVER, S-9, PHENOBARBITAL, Method: STANDARD PLATE
  mutagenic call: inactive; negative
Test System: AMES SALMONELLA TYPHIMURIUM, Strain/Indicator: TA1537, Metabolic Activation: RAT, LIVER, S-9, PHENOBARBITAL, Method: STANDARD PLATE
  mutagenic call: inactive; negative
Test System: AMES SALMONELLA TYPHIMURIUM, Strain/Indicator: TA1538, Metabolic Activation: RAT, LIVER, S-9, PHENOBARBITAL, Method: STANDARD PLATE
  mutagenic call: inactive; negative

## CCCCCCCCCCCCCC(=O)ON(C(=O)CCCCCCCCCCCCC)c1ccc2c(c1)Cc1ccccc1-2
Test System: UDS HUMAN FIBROBLASTS, Strain/Indicator: THY INCORP (NON-S-PHASE), Metabolic Activation: NONE, Method: AUTORADIOGRAPHY
  mutagenic call: active; positive

## Nc1ccc(/C=C/c2ccc(N)c(S(=O)(=O)O)c2)c(S(=O)(=O)O)c1
Test System: AMES SALMONELLA TYPHIMURIUM, Strain/Indicator: TA98, Metabolic Activation: HAMSTER, LIVER, S-9, AROCLOR 1254 (10%), Method: PREINCUBATION
  mutagenic call: inactive; negative
[1]
  mutagenic call: inactive; negative
Test System: AMES SALMONELLA TYPHIMURIUM, Strain/Indicator: TA98, Metabolic Activation: RAT, LIVER, S-9, AROCLOR 1254 (10%), Method: PREINCUBATION
  mutagenic call: inactive; negative
Test System: AMES SALMONELLA TYPHIMURIUM, Strain/Indicator: TA100, Metabolic Activation: HAMSTER, LIVER, S-9, AROCLOR 1254 (10%), Method: PREINCUBATION
  mutagenic call: inactive; negative
Test System: AMES SALMONELLA TYPHIMURIUM, Strain/Indicator: TA100, Metabolic Activation: NONE, Method: PREINCUBATION
  mutagenic call: inactive; negative
Test System: AMES SALMONELLA TYPHIMURIUM, Strain/Indicator: TA100, Metabolic Activation: RAT, LIVER, S-9, AROCLOR 1254 (10%), Method: PREINCUBATION
  mutagenic call: inactive; negative
Test System: AMES SALMONELLA TYPHIMURIUM, Strain/Indicator: TA1535, Metabolic Activation: HAMSTER, LIVER, S-9, AROCLOR 1254 (10%), Method: PREINCUBATION
  mutagenic call: inactive; negative
Test System: AMES SALMONELLA TYPHIMURIUM, Strain/Indicator: TA1535, Metabolic Activation: NONE, Method: PREINCUBATION
  mutagenic call: inactive; negative
Test System: AMES SALMONELLA TYPHIMURIUM, Strain/Indicator: TA1535, Metabolic Activation: RAT, LIVER, S-9, AROCLOR 1254 (10%), Method: PREINCUBATION
  mutagenic call: inactive; negative
Test System: AMES SALMONELLA TYPHIMURIUM, Strain/Indicator: TA1537, Metabolic Activation: HAMSTER, LIVER, S-9, AROCLOR 1254 (10%), Method: PREINCUBATION
  mutagenic call: inactive; negative
Test System: AMES SALMONELLA TYPHIMURIUM, Strain/Indicator: TA1537, Metabolic Activation: NONE, Method: PREINCUBATION
  mutagenic call: inactive; negative
Test System: AMES SALMONELLA TYPHIMURIUM, Strain/Indicator: TA1537, Metabolic Activation: RAT, LIVER, S-9, AROCLOR 1254 (10%), Method: PREINCUBATION
  mutagenic call: inactive; negative

## Cc1ccc(N=Nc2c(O)ccc3ccccc23)c(C)c1
Test System: AMES SALMONELLA TYPHIMURIUM, Strain/Indicator: TA98, Metabolic Activation: HAMSTER, LIVER, S-9, AROCLOR 1254 (5,20%), Method: PREINCUBATION
  mutagenic call: active; positive
Test System: AMES SALMONELLA TYPHIMURIUM, Strain/Indicator: TA98, Metabolic Activation: HAMSTER, LIVER, S-9, AROCLOR 1254, Method: STANDARD PLATE
  mutagenic call: active; positive
Test System: AMES SALMONELLA TYPHIMURIUM, Strain/Indicator: TA98, Metabolic Activation: HAMSTER, LIVER, S-9, Method: PREINCUBATION (PRIVAL METHOD)
  mutagenic call: active; positive
[2]
  mutagenic call: inactive; negative
Test System: AMES SALMONELLA TYPHIMURIUM, Strain/Indicator: TA98, Metabolic Activation: RAT, BLADDER, S-9, PCB, Method: FLUCTUATION TEST
  mutagenic call: inactive; negative
Test System: AMES SALMONELLA TYPHIMURIUM, Strain/Indicator: TA98, Metabolic Activation: RAT, LIVER, S-9, AROCLOR 1254, HAMSTER, LIVER, S-9, AROCLOR 1254, Method: STANDARD PLATE
  mutagenic call: active; positive
Test System: AMES SALMONELLA TYPHIMURIUM, Strain/Indicator: TA98, Metabolic Activation: RAT, LIVER, S-9, Method: STANDARD PLATE
  mutagenic call: inactive; negative
Test System: AMES SALMONELLA TYPHIMURIUM, Strain/Indicator: TA100, Metabolic Activation: HAMSTER, LIVER, S-9, Method: PREINCUBATION (PRIVAL METHOD)
  mutagenic call: active; positive
[3]
  mutagenic call: inactive; negative
Test System: AMES SALMONELLA TYPHIMURIUM, Strain/Indicator: TA100, Metabolic Activation: RAT, BLADDER, S-9, PCB, Method: FLUCTUATION TEST
  mutagenic call: inactive; negative
Test System: AMES SALMONELLA TYPHIMURIUM, Strain/Indicator: TA100, Metabolic Activation: RAT, LIVER, S-9, Method: STANDARD PLATE
  mutagenic call: inactive; negative
Test System: AMES SALMONELLA TYPHIMURIUM, Strain/Indicator: TA1538, Metabolic Activation: RAT, LIVER, S-9, AROCLOR 1254, HAMSTER, LIVER, S-9, AROCLOR 1254, Method: STANDARD PLATE
  mutagenic call: active; positive
Test System: Mouse lymphoma, Strain/Indicator: L5178Y (tk+/tk-), Metabolic Activation: None, Method: Suspension/plate
  mutagenic call: inactive; negative
Test System: Mouse lymphoma, Strain/Indicator: L5178Y (tk+/tk-), Metabolic Activation: Rat, Liver, S-9, Aroclor 1254, Method: Suspension/plate
  mutagenic call: inactive; negative

## c1ccc2c(c1)-c1cc3ccccc3cc1[C@@H]1N[C@H]21
[1]
  mutagenic call: active; positive
[2]
  mutagenic call: active; positive
[3]
  mutagenic call: active; positive

## CC(C)c1cc(-c2ccccc2)cc(C(C)C)c1N
[2]
  mutagenic call: inactive; negative
Test System: AMES SALMONELLA TYPHIMURIUM, Strain/Indicator: TA98, Metabolic Activation: RAT LIVER S-9, AROCLOR, Method: STANDARD PLATE
  mutagenic call: inactive; negative
[3]
  mutagenic call: inactive; negative
Test System: AMES SALMONELLA TYPHIMURIUM, Strain/Indicator: TA100, Metabolic Activation: RAT LIVER S-9, AROCLOR, Method: STANDARD PLATE
  mutagenic call: inactive; negative

## Nc1cc2cccc3ccc4cccc1c4c32
Test System: AMES SALMONELLA TYPHIMURIUM, Strain/Indicator: TA98, Metabolic Activation: RAT, LIVER, S-9, AROCLOR 1254 (2 OR 4%), Method: STANDARD PLATE
  mutagenic call: active; positive
Test System: AMES SALMONELLA TYPHIMURIUM, Strain/Indicator: TA100, Metabolic Activation: RAT, LIVER, S-9, AROCLOR 1254 (2%), Method: STANDARD PLATE
  mutagenic call: active; positive
Test System: AMES SALMONELLA TYPHIMURIUM, Strain/Indicator: TA1535, Metabolic Activation: RAT, LIVER, S-9, AROCLOR 1254 (2%), Method: STANDARD PLATE
  mutagenic call: inactive; negative
Test System: AMES SALMONELLA TYPHIMURIUM, Strain/Indicator: TA1537, Metabolic Activation: RAT, LIVER, S-9, AROCLOR 1254 (2%), Method: STANDARD PLATE
  mutagenic call: active; positive
